From patent EP2608671B1, “COMPOUNDS FOR TREATMENT OF CANCER” (Gtx, Inc., priority 2010, dated 2012) come the findings set out here.

Structures are written as SMILES. Read-outs that look alike come from different tables or passages of the source.

One assay has as its system B16-F1. Nature of the assay: SRB cell growth inhibition (cytotoxicity) assay. The class given is cell-based, mouse. The text has this: (§1) The only compounds which belong to the invention are the ones falling under the scope of formula (XI).
The test system of another assay is PC-3. Put plainly: cells.
Text: as §1
Cells were stained with SRB solution.
Cells. […] Cells between the third and fifth passages were used for experiments.
Cell growth inhibition studies. […] Cells were stained with sulphorhodamine B (SRB) solution.

A further assay deals with A375. Nature of the assay: SRB cell growth inhibition (cytotoxicity) assay. The format is cell-based, human.
The test system of the next assay is WM-164. Put plainly: SRB cell growth inhibition (cytotoxicity) assay. The format is cell-based, human. The conditions noted are these: WM164 melanoma cells, 48 h, SRB; read-out: IC50 ± SEM (nM) WM164.
The test system of assay [1] is melanoma cell lines (A375, WM-164, B16-F1) and prostate cancer cell lines (LNCaP, DU 145, PC-3, PPC-1). Put plainly: SRB cytotoxicity, melanoma and prostate cell panel (averages). The class given is cell-based. Particulars: ABI compounds, Tables 11-13; read-out: IC50 (average over cell lines).
Text: as §1

The subject of assay [2] is A375 human melanoma xenograft. Nature of the assay: In vivo antitumor efficacy, A375 melanoma xenograft. On the set-up: species or system mouse. Particulars: Melanoma (A375) xenograft; for % T/C: 34 days. As for the experimental part:
DTIC at 60 mg/kg was used as a positive control again.
(§2) PC-3 and A375 tumor xenograft studies.
(§3) In vivo antitumor activity [tumor growth inhibition (% T/C), tumor growth delay (T-C value), and tumor cell kill (total log cell kill)].

A further assay concerns OVCAR-8. Nature of the assay: SRB growth inhibition, MDR model parent line. Particulars: Table 21, Ovarian, n = 3; read-out: IC50 ± SEM (nM) OVCAR-8. The format is cell-based, human.
Assay [3] relates to PC-3 prostate tumor xenograft. Put plainly: In vivo antitumor efficacy, PC-3 xenograft. The conditions noted are these: Prostate (PC-3) xenograft, 21 days. On the set-up: species or system mouse.
Text: as §2, §3

The next assay relates to NCI/ADR-RES. Nature of the assay: SRB growth inhibition, P-gp over-expressing MDR line. The format is cell-based, human.
[4] abbreviates: Table 6, read-out: IC50 ±SEM (nM), B16-F1.
Where [5] appears, read: read-out: IC50 ±SEM (nM), PC-3, Table 6.
[6] abbreviates: Table 6, read-out: IC50 ±SEM (nM), A375.
[7] abbreviates: read-out: IC50 ±SEM (nM), PPC-1, Table 6.
Where [8] appears, read: read-out: IC50 ±SEM (nM), DU 145, Table 6.
Setting [9] is: read-out: IC50 ±SEM (nM), LNCaP, Table 6.
Where [10] appears, read: Table 21, Melanoma, n = 3, read-out: IC50 ± SEM (nM) B16-F1.
Where [11] appears, read: read-out: IC50 ± SEM (nM) LNCaP, Table 21, Prostate, n = 3.
Where [12] appears, read: read-out: IC50 ± SEM (nM) PC-3, Table 21, Prostate, n = 3.
Setting [13] is: Table 21, Melanoma, n = 3, read-out: IC50 ± SEM (nM) A375.
Where [14] appears, read: read-out: IC50 ± SEM (nM) PPC-1, Table 21, Prostate, n = 3.
Setting [15] is: read-out: IC50 ± SEM (nM) Dn-145, Table 21, Prostate, n = 3.

For the compound `COc1cc(C(=O)c2csc(-c3ccc(C)cc3)n2)cc(OC)c1OC` [2m], the IC50 with B16-F1 (setting [4]) turned out to be 21 nM; with PC-3 (setting [5]), 8.7 nM; in the assay with A375 (setting [6]) it was 11 nM; in the assay with PPC-1 (setting [7]) it was 6.2 nM; with DU 145 (setting [8]), 6.9 nM.
Take `COc1cc(C(=O)c2csc(-c3cc(F)c(F)c(F)c3)n2)cc(OC)c1OC` [2p]: the IC50 was 16600 nM in the assay with B16-F1 (setting [4]); above 10000 nM in the assay with LNCaP (setting [9]); 2380 nM with PC-3 (setting [5]); 2200 nM with A375 (setting [6]); 1080 nM in the assay on PPC-1 (setting [7]); 1900 nM with DU 145 (setting [8]).
As for `COc1cc(C(=O)c2csc(-c3ccc(CC(N)=O)cc3)n2)cc(OC)c1OC` [2q], the IC50 was above 20000 nM with B16-F1 (setting [4]); above 10000 nM in the assay on LNCaP (setting [9]); above 10000 nM with PC-3 (setting [5]); above 20000 nM in the assay on A375 (setting [6]); above 10000 nM with PPC-1 (setting [7]); above 10000 nM with DU 145 (setting [8]).
As to `O=C(c1ccc(F)cc1)c1c[nH]c(-c2ccc(O)cc2)n1` [12kb], the IC50 in the assay on B16-F1 (B16-F1 melanoma cells, 48 h, SRB, read-out: IC50 ± SEM (nM) B16-F1) is above 10000 nM; with LNCaP (read-out: IC50 ± SEM (nM) LNCaP, LNCaP prostate cancer cells, 96 h, SRB), 10000 nM; in the assay on PC-3 (read-out: IC50 ± SEM (nM) PC-3, PC-3 prostate cancer cells, 96 h, SRB), above 10000 nM; with PPC-1 (read-out: IC50 ± SEM (nM) PPC-1, PPC-1 prostate cancer cells, 96 h, SRB) it was above 10000 nM; with DU 145 (read-out: IC50 ± SEM (nM) Du 145, Du 145 prostate cancer cells, 96 h, SRB), above 10000 nM; with WM-164, above 10000 nM. The IC50 in assay [1] worked out at 33000 nM.
As for `COc1cc(C(=O)c2csc(-c3ccc(F)cc3)n2)cc(OC)c1OC` [SMART-F], the IC50 in the assay on B16-F1 (setting [10]) was 43 ± 21 nM; in the assay on LNCaP (setting [11]) it was 6 ± 1 nM; in the assay with PC-3 (setting [12]), 13 ± 1 nM; in the assay with OVCAR-8 it was 34 ± 3 nM; in the assay with A375 (setting [13]), 33 ± 14 nM. Besides, the “Median time to reach 600 mm^3.” value in assay [2] (15 mg/kg i.p.) was found to be 29 days. Also, the “% T/C” value is 28% in assay [2] (15 mg/kg i.p.), 21% in assay [3] (5 mg/kg i.p.) and 24% in assay [3] (15 mg/kg i.p.). In assay [2] (15 mg/kg i.p., doubling time 4.6 d), the “Total log cell kill” value is recorded as 0.7.
`COc1cc(C(=O)c2csc(-c3ccccc3)n2)cc(OC)c1OC` [SMART-H]: the IC50 in the assay with B16-F1 (setting [10]) is 55 ± 5 nM; in the assay with LNCaP (setting [11]) it was 28 ± 4 nM; in the assay with PC-3 (setting [12]), 21 ± 1 nM; in the assay with OVCAR-8 it was 35 ± 2 nM; with A375 (setting [13]), 28 ± 5 nM; in the assay on PPC-1 (setting [14]), 43 ± 5 nM. In addition, the IC50 in the assay with DU 145 (setting [15]) was determined as 71 ± 4 nM. Further, the “Median time to reach 600 mm^3.” value in assay [2] (20 mg/kg i.p.) came to 28 days. In addition, the “% T/C” value in assay [2] (20 mg/kg i.p.) was 30%; in assay [3] (5 mg/kg i.p.) it was 29%; in assay [3] (15 mg/kg i.p.), 4%.
For the compound `COc1cc(C(=O)c2csc(-c3ccc(O)cc3)n2)cc(OC)c1OC` [SMART-OH], in the assay with NCI/ADR-RES (NCI/ADR-RES relative to parent OVCAR-8, 5760 min), the “Resistance factor” value is 0.4. Further, the IC50 is 45 ± 5 nM with NCI/ADR-RES (Table 21, Ovarian, n = 3, read-out: IC50 ± SEM (nM) NCI/ADR-RES); 113 ± 6 nM with B16-F1 (setting [10]); 103 ± 9 nM with LNCaP (setting [11]); 87 ± 5 nM with PC-3 (setting [12]); 110 ± 8 nM in the assay with OVCAR-8; 93 ± 11 nM in the assay with A375 (setting [13]). For the same compound, the IC50 with PPC-1 (setting [14]) was 76 ± 2 nM; in the assay with DU 145 (setting [15]), 116 ± 14 nM. In addition, the “% T/C” value in assay [3] (50 mg/kg i.p.) is recorded as 34%.
`COc1cc(C(=O)c2csc(-c3ccccc3)n2)cc(OC)c1OCCN1C(=O)c2ccccc2C1=O` [compound 20]: the IC50 is 42 nM with B16-F1 (setting [4]); 65 nM in the assay with LNCaP (setting [9]); 73 nM with PC-3 (setting [5]); 38 nM in the assay with A375 (setting [6]); 73 nM with PPC-1 (setting [7]); 121 nM with DU 145 (setting [8]).
